Measured values taken from patent publication US10370366B2 (Flatley Discovery Lab, LLC, priority 2013, dated 2019).

Biological target: T1, human F508del CFTR (Homo sapiens, UniProt P13569, DEL508-508)
T1 construct: expressed in transfected cells; host or cells: Fisher Rat Thyroid (FRT) cells
Assay: CFTR-YFP High Throughput Assay
Format: cell-based
Conditions: FRT cells expressing human F508del CFTR and YFP; for Emax: EMax normalized to the positive control, read-out: % Efficacy
Procedure, shortened: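 FRT cells stably co-expressing human F508del CFTR and halide-sensitive YFP-H148Q/I152L; for correction, compound (2 nM-40 μM) incubated 24-26 h at 37° C, washed, then stimulated 60-120 min at RT with 20 μM forskolin plus 30 μM potentiator P3. Iodide-induced YFP quench (Ex 500/Em 540 nm) recorded; quench rates least-squares fitted.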

T1 sequence (P13569 with tags, fused parts or gaps DEL508-508): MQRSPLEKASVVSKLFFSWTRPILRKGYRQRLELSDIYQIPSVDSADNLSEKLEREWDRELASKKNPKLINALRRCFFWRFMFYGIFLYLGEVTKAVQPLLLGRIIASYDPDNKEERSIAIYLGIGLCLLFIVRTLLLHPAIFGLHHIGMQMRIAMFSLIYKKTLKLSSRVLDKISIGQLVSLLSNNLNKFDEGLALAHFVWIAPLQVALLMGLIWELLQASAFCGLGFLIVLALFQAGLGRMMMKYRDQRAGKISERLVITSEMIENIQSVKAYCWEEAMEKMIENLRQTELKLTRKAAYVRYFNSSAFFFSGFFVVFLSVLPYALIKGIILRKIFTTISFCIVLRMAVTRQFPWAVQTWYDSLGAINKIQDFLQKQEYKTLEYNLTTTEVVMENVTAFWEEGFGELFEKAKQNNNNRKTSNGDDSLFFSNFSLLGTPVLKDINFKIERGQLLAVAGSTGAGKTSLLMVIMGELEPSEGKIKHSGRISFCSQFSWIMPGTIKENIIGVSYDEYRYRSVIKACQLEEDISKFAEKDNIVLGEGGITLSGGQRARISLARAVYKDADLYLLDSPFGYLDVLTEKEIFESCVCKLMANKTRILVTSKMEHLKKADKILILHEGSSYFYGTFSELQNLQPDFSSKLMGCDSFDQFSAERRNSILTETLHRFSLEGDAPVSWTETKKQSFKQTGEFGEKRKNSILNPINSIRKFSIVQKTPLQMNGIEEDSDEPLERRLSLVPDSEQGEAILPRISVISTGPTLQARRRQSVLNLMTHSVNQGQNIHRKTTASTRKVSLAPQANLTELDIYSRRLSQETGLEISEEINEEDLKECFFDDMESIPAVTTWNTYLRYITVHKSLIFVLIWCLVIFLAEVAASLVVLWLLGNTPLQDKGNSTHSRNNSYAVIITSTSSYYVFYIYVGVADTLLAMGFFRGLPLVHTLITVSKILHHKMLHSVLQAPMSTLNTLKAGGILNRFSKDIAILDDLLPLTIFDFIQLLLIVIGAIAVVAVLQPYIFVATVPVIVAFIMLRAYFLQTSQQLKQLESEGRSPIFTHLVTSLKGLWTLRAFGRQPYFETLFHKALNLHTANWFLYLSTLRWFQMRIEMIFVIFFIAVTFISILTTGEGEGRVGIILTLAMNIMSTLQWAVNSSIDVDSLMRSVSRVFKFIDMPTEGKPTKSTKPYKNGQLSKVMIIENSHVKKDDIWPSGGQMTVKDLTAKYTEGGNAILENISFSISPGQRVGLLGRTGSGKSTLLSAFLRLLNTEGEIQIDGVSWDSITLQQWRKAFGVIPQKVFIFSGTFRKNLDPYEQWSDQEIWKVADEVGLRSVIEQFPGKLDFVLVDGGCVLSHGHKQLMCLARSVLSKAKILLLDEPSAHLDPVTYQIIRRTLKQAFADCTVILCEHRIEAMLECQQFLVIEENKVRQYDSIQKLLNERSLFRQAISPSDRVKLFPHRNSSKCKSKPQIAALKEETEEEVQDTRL

Structure (SMILES)	Emax [%]	EC50 [µM]
CCN(C(=O)c1nn(C)c(=O)c2c1c1ccccc1n2C)c1ccccc1 [Example 207, N-ethyl-3,5-dimethyl-4-oxo-N-phenyl-4,5-dihydro-3H-pyridazino[4,5-b]indole-1-carboxamide]	30 to 80	< 10
CC(C)n1nc(C(=O)N2CCCCC2)c2c3ccccc3n(C)c2c1=O [Example 208, 3-isopropyl-5-methyl-1-(piperidine-1-carbonyl)-3,5-dihydro-4H-pyridazino[4,5-b]indol-4-one]	10 to 30	< 10
CCN(C(=O)c1nn(C)c(=O)c2c1c1ccccc1n2C)c1cccc(Cl)c1 [Example 209, N-(3-chlorophenyl)-N-ethyl-3,5-dimethyl-4-oxo-4,5-dihydro-3H-pyridazino[4,5-b]indole-1-carboxamide]	30 to 80	< 10
CCOc1ccc(N(CC)C(=O)c2nn(C(C)C)c(=O)c3c2c2ccccc2n3C)cc1 [Example 210, N-(4-ethoxyphenyl)-N-ethyl-3-isopropyl-5-methyl-4-oxo-4,5-dihydro-3H-pyridazino[4,5-b]indole-1-carboxamide]	30 to 80	< 10
CCN(C(=O)c1nn(C)c(=O)c2c1c1ccccc1n2C)c1ccc2c(c1)OC(F)(F)O2 [Example 211, N-(2,2-difluorobenzo[d][1,3]dioxol-5-yl)-N-ethyl-3,5-dimethyl-4-oxo-4,5-dihydro-3H-pyridazino[4,5-b]indole-1-carboxamide]	30 to 80	< 10
CC(C)N(C(=O)c1nn(Cc2ccccc2)c(=O)c2c1c1ccccc1n2C)c1ccccc1 [Example 212, 3-benzyl-N-isopropyl-5-methyl-4-oxo-N-phenyl-4,5-dihydro-3H-pyridazino[4,5-b]indole-1-carboxamide]	30 to 80	< 10
CCN(CC)C(=O)c1nn(CC(=O)N(CC)c2cccc(Cl)c2)c(=O)c2c1c1ccccc1n2C [Example 213, 3-(2-((3-chlorophenyl)(ethyl)amino)-2-oxoethyl)-N,N-diethyl-5-methyl-4-oxo-4,5-dihydro-3H-pyridazino[4,5-b]indole-1-carboxamide]	30 to 80	< 10
CCN(C(=O)c1nn(CC(=O)N2CCCCC2)c(=O)c2c1c1ccccc1n2C)c1ccccc1 [Example 214, N-ethyl-5-methyl-4-oxo-3-(2-oxo-2-(piperidin-1-yl)ethyl)-N-phenyl-4,5-dihydro-3H-pyridazino[4,5-b]indole-1-carboxamide]	30 to 80	< 10
CCN(C(=O)c1nn(CC(=O)N2CCOCC2)c(=O)c2c1c1ccccc1n2C)c1ccccc1 [Example 215, N-ethyl-5-methyl-3-(2-morpholino-2-oxoethyl)-4-oxo-N-phenyl-4,5-dihydro-3H-pyridazino[4,5-b]indole-1-carboxamide]	30 to 80	< 10
CCN(C(=O)c1nn(CC2CCCO2)c(=O)c2c1c1ccccc1n2C)c1ccccc1 (stereo not drawn) [Example 216, N-ethyl-5-methyl-4-oxo-N-phenyl-3-((THF-2-yl)methyl)-4,5-dihydro-3H-pyridazino[4,5-b]indole-1-carboxamide]	30 to 80	< 10
CCN(C(=O)c1nn(CC(C)(C)C)c(=O)c2c1c1ccccc1n2C)c1ccccc1 [Example 217, N-ethyl-5-methyl-3-neopentyl-4-oxo-N-phenyl-4,5-dihydro-3H-pyridazino[4,5-b]indole-1-carboxamide]	10 to 30	> 20
CCN(C(=O)c1nn(C(C)c2ccccc2)c(=O)c2c1c1c(C)cccc1n2C)c1ccccc1 (stereo not drawn) [Example 218, N-ethyl-5,9-dimethyl-4-oxo-N-phenyl-3-(1-phenylethyl)-4,5-dihydro-3H-pyridazino[4,5-b]indole-1-carboxamide]	> 80	< 10
CCN(C(=O)c1nn(-c2ccc(C)cc2)c(=O)c2c1c1ccccc1n2C1CCC1)c1ccccc1 [Example 219, 5-cyclobutyl-N-ethyl-4-oxo-N-phenyl-3-p-tolyl-4,5-dihydro-3H-pyridazino[4,5-b]indole-1-carboxamide]	10 to 30	–
CCN(C(=O)c1nn(-c2ccc(C)cc2)c(=O)c2[nH]c3ccccc3c12)c1ccccc1 [Example 220, N-Ethyl-4-oxo-N-phenyl-3-p-tolyl-4,5-dihydro-3H-pyridazino[4,5-b]indole-1-carboxamide]	30 to 80	–
CCN(C(=O)c1nn(-c2ccc(C)cc2)c(=O)c2[nH]c3ccccc3c12)c1cccc(Cl)c1 [Example 221, N-(3-chlorophenyl)-N-ethyl-4-oxo-3-(p-tolyl)-4,5-dihydro-3H-pyridazino[4,5-b]indole-1-carboxamide]	30 to 80	–
CCN(C(=O)Cn1ncc2c([nH]c3ccccc32)c1=O)c1ccc2c(c1)OC(F)(F)O2 [Example 222, N-(2,2-difluorobenzo[d][1, 3]dioxol-5-yl)-N-ethyl-2-(4-oxo-4,5-dihydro-3H-pyridazino[4,5-b]indol-3-yl)acetamide]	30 to 80	> 20

Structure (SMILES)	Emax [%]	EC50 [µM]
CCN(C(=O)c1nn(-c2ccc(C)cc2)c(=O)c2c1c1ccccc1n2CC#N)c1ccccc1 [Example 223, 5-(cyanomethyl)-N-ethyl-4-oxo-N-phenyl-3-(p-tolyl)-4,5-dihydro-3H-pyridazino[4,5-b]indole-1-carboxamide]	30 to 80	–
CCN(C(=O)c1nn(-c2ccc(C)cc2)c(=O)c2c1c1ccccc1n2CC(=O)O)c1ccccc1 [Example 224, 2-(1-(ethyl(phenyl)carbamoyl)-4-oxo-3-(p-tolyl)-3H-pyridazino[4,5-b]indol-5(4H)-yl)acetic acid]	30 to 80	–
CCN(C(=O)c1nn(-c2ccc(C)cc2)c(=O)c2c1c1ccccc1n2C(C)C)c1ccccc1 [Example 225, N-ethyl-5-isopropyl-4-oxo-N-phenyl-3-(p-tolyl)-4,5-dihydro-3H-pyridazino[4,5-b]indole-1-carboxamide]	30 to 80	–
CCN(C(=O)c1nn(-c2ccc(C)cc2)c(=O)c2c1c1ccccc1n2Cc1ccccn1)c1ccccc1 [Example 226, N-ethyl-4-oxo-N-phenyl-5-(pyridin-2-ylmethyl)-3-(p-tolyl)-4,5-dihydro-3H-pyridazino[4,5-b]indole-1-carboxamide]	30 to 80	–
CCN(C(=O)c1nn(CCOC)c(=O)c2c1c1ccccc1n2C)c1ccccc1 [Example 227, N-ethyl-3-(2-methoxyethyl)-5-methyl-4-oxo-N-phenyl-4,5-dihydro-3H-pyridazino[4,5-b]indole-1-carboxamide]	30 to 80	< 10
CCN(C(=O)c1nn(C[C@@H](O)COC)c(=O)c2c1c1ccccc1n2C)c1ccccc1 [Example 228, (R)-N-ethyl-3-(2-hydroxy-3-methoxypropyl)-5-methyl-4-oxo-N-phenyl-4,5-dihydro-3H-pyridazino[4,5-b]indole-1-carboxamide]	30 to 80	< 10
CCN(C(=O)c1nn(C[C@@H](O)CO)c(=O)c2c1c1ccccc1n2C)c1ccccc1 [Example 229, (R)-3-(2,3-dihydroxypropyl)-N-ethyl-5-methyl-4-oxo-N-phenyl-4,5-dihydro-3H-pyridazino[4,5-b]indole-1-carboxamide]	30 to 80	< 10
CCN(C(=O)c1nn(C[C@@H](O)COCc2ccccc2)c(=O)c2c1c1ccccc1n2C)c1ccccc1 [Example 230, (R)-3-(3-(benzyloxy)-2-hydroxypropyl)-N-ethyl-5-methyl-4-oxo-N-phenyl-4,5-dihydro-3H-pyridazino[4,5-b]indole-1-carboxamide]	30 to 80	< 10
CCN(CC)C(=O)c1nn(CC(O)COCc2ccccc2)c(=O)c2c1c1c(OC)cccc1n2C (stereo not drawn) [Example 231, 3-(3-(benzyloxy)-2-hydroxypropyl)-N,N-diethyl-9-methoxy-5-methyl-4-oxo-4,5-dihydro-3H-pyridazino[4,5-b]indole-1-carboxamide]	30 to 80	< 10
CCN(CC)C(=O)c1nn(CC(O)COCc2ccccc2)c(=O)c2c1c1c(C)cccc1n2C (stereo not drawn) [Example 232, 3-(3-(benzyloxy)-2-hydroxypropyl)-N,N-diethyl-5,9-dimethyl-4-oxo-4,5-dihydro-3H-pyridazino[4,5-b]indole-1-carboxamide]	30 to 80	< 10
CCN(CC)C(=O)c1nn(CC(O)COCc2ccccc2)c(=O)c2c1c1c(Cl)cccc1n2C (stereo not drawn) [Example 233, 3-(3-(benzyloxy)-2-hydroxypropyl)-9-chloro-N,N-diethyl-5-methyl-4-oxo-4,5-dihydro-3H-pyridazino[4,5-b]indole-1-carboxamide]	30 to 80	< 10
CCN(CC)C(=O)c1nn(CC(O)COCc2ccccc2)c(=O)c2c1c1c(F)cccc1n2C (stereo not drawn) [Example 234, 3-(3-(benzyloxy)-2-hydroxypropyl)-N,N-diethyl-9-fluoro-5-methyl-4-oxo-4,5-dihydro-3H-pyridazino[4,5-b]indole-1-carboxamide]	30 to 80	< 10
Cn1c2ccccc2c2c(-c3ccccc3)nn(-c3ccccc3)c(=O)c21 [Example 235]	10 to 30	> 20
Cc1ccc(-n2nc(-c3ccccc3)c3c4ccccc4n(C)c3c2=O)cc1 [Example 236, 5-methyl-1-phenyl-3-(p-tolyl)-3H-pyridazino[4,5-b]indol-4(5H)-one]	10 to 30	> 20
Cn1c2ccccc2c2c(-c3ccccc3)nn(-c3ccccc3F)c(=O)c21 [Example 237, 3-(2-fluorophenyl)-5-methyl-1-phenyl-3H-pyridazino[4,5-b]indol-4(5H)-one]	10 to 30	> 20
CCN(C(=O)Cn1nc(Cc2cccnc2)c2c3ccccc3n(C)c2c1=O)c1ccc2c(c1)OC(F)(F)O2 [Example 238, N-(2,2-difluorobenzo[d][1, 3]dioxol-5-yl)-N-ethyl-2-(5-methyl-4-oxo-1-(pyridin-3-ylmethyl)-4,5-dihydro-3H-pyridazino[4,5-b]indol-3-yl)acetamide]	30 to 80	< 10
